The target in experiment [1] is T1, mTor (Homo sapiens, UniProt P42345).
T1 construct: purchased Millipore/Merck KGA
The experiment can be described thus: In vitro kinase inhibition, mTor (Millipore/Merck kinases panel screening). In kind it is biochemical. The following applies: compound at 0.03 μM. The method, then:
(§1) In vitro kinase inhibition activities included Pi3k and mTor activities can be tested with Millipore/Merck KGA of Europe in their kinases panel screening. Animal antitumor activity testing can be conducted by various cancer xenograft models for a compound of formula I.
(§2) The following compounds or a pharmaceutically acceptable salt thereof, but not limited, can also be prepared similarly according to the methods described in Scheme I-Scheme II. They are also tested for the inhibitions on mTor or pi3k kinases, or tumor cell lines.

The subject of experiment [2] is pi3K. As to the kind of experiment: In vitro kinase inhibition, pi3K (Millipore/Merck kinases panel screening). Type of experiment: biochemical. The following applies: compound at 0.03 μM. The method, then: as §1, §2

As for `O=C(CN1CCCC1)Nc1ccc(-c2ccc3ncc4c(c3c2)n(-c2ccc(Cl)c(C(F)(F)F)c2)c2nncn42)cn1` [N-(5-{16-[4-chloro-3-(trifluoromethyl)phenyl]-8,11,13,14,16-pentaazatetracyclo[8.6.0.0^2,7.0^11,15]-hexadeca-1(10),2,4,6,8,12,14-heptaen-4-yl}pyridin-2-yl)-2-(pyrrolidin-1-yl)acetamide], the activity at 0.03 µM in experiment [1] (scaffold drawing 7 series) is 4%. Moreover, the “pi3K % activity @0.03 μM” value in experiment [2] (scaffold drawing 7 series) turned out to be 82%.
For `COCCNc1ccc(-c2ccc3ncc4c(c3c2)n(-c2cccc(C(F)(F)F)c2)c2nncn42)cn1` [N-(2-methoxyethyl)-5-{16-[3-(trifluoromethyl)phenyl]-8,11,13,14,16-pentaazatetracyclo-[8.6.0.0^2,7.0^11,15]-hexadeca-1(10),2,4,6,8,12,14-heptaen-4-yl}pyridin-2-amine] the same measures were -3% and 92%.
Take “N-[2-(morpholin-4-yl)ethyl]-5-{16-[3-(trifluoromethyl)phenyl]-8,11,13,14,16-pentaazatetra-cyclo[8.6.0.0^2,7.0^11,15]hexadeca-1(10),2,4,6,8,12,14-heptaen-4-yl}pyridin-2-amine”: the “mTor % activity @0.03 μM” value in experiment [1] (scaffold drawing 7 series) was found to be 43%. The “pi3K % activity @0.03 μM” value in experiment [2] (scaffold drawing 7 series) amounted to 94%.
For the molecule `Nc1ccc(-c2ccc3ncc4c(c3c2)n(-c2ccc(Cl)c(C(F)(F)F)c2)c2nncn42)cn1` [5-pyridin-2-amine, 4-Cl, H, 5-{16-[4-chloro-3-(trifluoromethyl)phenyl]-8,11,13,14,16-pentaazatetracyclo-[8.6.0.0^2,7.0^11,15]hexadeca-1(10),2,4,6,8,12,14-heptaen-4-yl}pyridin-2-amine], the activity at 0.03 µM in experiment [1] (scaffold drawing 7 series) is -19%. For the same molecule, the “pi3K % activity @0.03 μM” value in experiment [2] (scaffold drawing 7 series) stood at 38%.
The like results for `NCC(=O)Nc1ccc(-c2ccc3ncc4c(c3c2)n(-c2ccc(Cl)c(C(F)(F)F)c2)c2nncn42)cn1` [2-amino-N-(5-{16-[4-chloro-3-(trifluoromethyl)phenyl]-8,11,13,14,16-pentaazatetracyclo-[8.6.0.0^2,7.0^11,15]hexadeca-1(10),2,4,6,8,12,14-heptaen-4-yl}pyridin-2-yl)acetamide] were, in that order, 9% and 83%.
For `COCCNc1ccc(-c2ccc3ncc4c(c3c2)n(-c2ccc(Cl)c(C(F)(F)F)c2)c2nncn42)cn1` [5-{16-[4-chloro-3-(trifluoromethyl)phenyl]-8,11,13,14,16-pentaazatetracyclo[8.6.0.0^2,7.0^11,15]-hexadeca-1(10),2,4,6,8,12,14-heptaen-4-yl}-N-(2-methoxyethyl)pyridin-2-amine] the same measures were -5% and 87%.
With `FC(F)(F)c1ccc(-n2c3c4cc(-c5cnc6ccccc6c5)ccc4ncc3n3cnnc23)cc1` [3-quinoline, H, H, 4-(quinolin-3yl)-16-[4-(trifluoromethyl)phenyl]-8,11,13,14,16-pentaazatetracyclo-[8.6.0.0^2,7.0^11,15]hexadeca-1(10),2,4,6,8,12,14-heptaene], the activity at 0.03 µM in experiment [1] (scaffold drawing 34 series) stood at 68%. Moreover, the “pi3K % activity @0.03 μM” value in experiment [2] (scaffold drawing 34 series) was determined as 99%.
In the case of “2-[(5-{16-[3-(trifluoromethyl)phenyl]-8,11,13,14,16-pentaazatetracyclo-[8.6.0.0^2,7.0^11,15]-hexadeca-1(10),2,4,6,8,12,14-heptaen-4-yl}pyridin-2-yl-amino]ethan-1-ol”, in experiment [1] (scaffold drawing 7 series), the “mTor % activity @0.03 μM” value is on record as 8%. In addition, the “pi3K % activity @0.03 μM” value in experiment [2] (scaffold drawing 7 series) turned out to be 96%.
Regarding `FC(F)(F)c1cc(-n2c3c4cc(-c5cccnc5)ccc4ncc3n3cnnc23)ccc1Cl` [3-pyridine, 4-Cl, H, 16-[4-chloro-3-(trifluoromethyl)phenyl]-4-(pyridin-3-yl)-8,11,13,14,16-pentaazatetracyclo-[8.6.0.0^2,7.0^11,15]hexadeca-1(10),2,4,6,8,12,14-heptaene], the activity at 0.03 µM in experiment [1] (scaffold drawing 7 series) stood at 19%. For the same molecule, in experiment [2] (scaffold drawing 7 series), the “pi3K % activity @0.03 μM” value stood at 77%.

The values are drawn from US10112945B2, “Fused quinoline compunds as PI3K, mTOR inhibitors” (ADVENCHEN PHARMACEUTICALS, NANJING LTD., priority 2014, dated 2018).
